In ChEMBL document CHEMBL2331111, “Antioxidant and anti-inflammatory meroterpenoids from the brown alga Cystoseira usneoides” (J Nat Prod, 2013):
Active and inactive are the calls of the source. The rule behind the calls is not given here.

What was measured:
[1] = Antioxidant activity assessed as ABTS free radical scavenging activity measured up to 6 mins by spectrophotometric analysis; format: functional
[2] = Ratio of trolox EC50 to compound EC50 for ABTS free radical scavenging activity
THP-1 [3] = test: Cytotoxicity against PMA-treated human THP1 cells assessed as cell viability at 8 to 10 uM after 48 hrs by SRB assay; format: cell-based; conditions: thp-1, 48 h
THP-1 [4] = test: Antiinflammatory activity in PMA-treated human THP1 cells assessed as inhibition of LPS-induced TNFalpha production at 8 uM incubated for 24 hrs prior to LPS challenge measured after 24 hrs by ELISA relative to control; format: functional
THP-1 [5] = test: Antiinflammatory activity in PMA-treated human THP1 cells assessed as inhibition of LPS-induced TNFalpha production at 10 uM incubated for 24 hrs prior to LPS challenge measured after 24 hrs by ELISA relative to control; format: functional
THP-1 [6] = test: Antiinflammatory activity in PMA-treated human THP1 cells assessed as inhibition of LPS-induced TNFalpha production at 6 uM incubated for 24 hrs prior to LPS challenge measured after 24 hrs by ELISA relative to control; format: functional
THP-1 [7] = test: Antiinflammatory activity in PMA-treated human THP1 cells assessed as inhibition of LPS-induced TNFalpha production at 2 uM incubated for 24 hrs prior to LPS challenge measured after 24 hrs by ELISA; format: functional, cell-based

Row | SMILES | EC50 [1] [µM] | Ratio EC50 [2] | Activity (THP-1 [3]) | inhibition at 8 µM (THP-1 [4]) [%] | inhibition at 10 µM (THP-1 [5]) [%] | inhibition at 6 µM (THP-1 [6]) [%] | inhibition (THP-1 [7])
1 | COc1c(C)cc(O)cc1/C=C/C(C)(O)CC(=O)/C=C(/C)CCCC(C)C(=O)/C=C/C(C)(C)O (centres undefined) [CYSTODIONE A] | 22.5 | 1.15 | Non-toxic | 33 | – | – | –
2 | COc1c(C)cc(O)cc1/C=C/C(C)(O)CC(=O)/C=C(/C)CCCC(C)=O (centres undefined) [CYSTODIONE C] | 55.9 | 0.46 | – | – | – | – | –
3 | COc1c(C)cc(O)cc1C/C=C(\C)CC(=O)/C=C(\C)CCCC(C)C(=O)/C=C/C(C)(C)O (centres undefined) | 24.5 | 1.06 | – | – | – | – | –
4 | COc1c(C)cc(O)cc1/C=C/C(C)(O)CC(=O)/C=C(\C)CCCC(C)C(=O)/C=C/C(C)(C)O (centres undefined) [CYSTODIONE B] | 24.4 | 1.06 | Non-toxic | – | – | 11 | –
5 | COc1c(C)cc(O)cc1C/C=C(\C)CC(=O)/C=C(\C)CCCC(C)(O)C(=O)/C=C/C(C)(C)O (centres undefined) | 33.1 | 0.78 | Non-toxic | – | 64 | – | –
6 | COc1c(C)cc(O)cc1C/C=C(\C)CC(=O)/C=C(/C)CCCC(C)C(=O)/C=C/C(C)(C)O (centres undefined) | 26.3 | 0.98 | Non-toxic | – | – | – | inactive

Further lines, with some results ahead:

Row | EC50 [1] [µM] | SMILES | Ratio EC50 [2] | Activity (THP-1 [3]) | inhibition at 8 µM (THP-1 [4]) [%] | inhibition at 10 µM (THP-1 [5]) [%] | inhibition at 6 µM (THP-1 [6]) [%] | inhibition (THP-1 [7])
7 | 33.3 | COc1c(C)cc(O)cc1C/C=C(\C)CC(=O)/C=C(\C)CCCC(C)=O [CYSTOMEXICONE B] | 0.78 | – | – | – | – | –
8 | 44.7 | COc1c(C)cc(O)cc1/C=C/C(C)(O)CC(=O)/C=C(\C)CCCC(C)=O (centres undefined) [CYSTODIONE D] | 0.58 | Non-toxic | – | 11 | – | –
9 | 25.9 | Cc1c(C)c2c(c(C)c1O)CCC(C)(C(=O)O)O2 (centres undefined) [TROLOX] | 1 | – | – | – | – | –
10 | 51.6 | COc1c(C)cc(O)cc1C/C=C(\C)CC(=O)/C=C(/C)CCCC(C)=O [CYSTOMEXICONE A] | 0.5 | – | – | – | – | –
11 | 43.1 | COc1c(C)cc(O)cc1C/C=C(\C)CC(=O)/C=C(/C)CCCC(C)(O)C(=O)/C=C/C(C)(C)O (centres undefined) [USNEOIDONE Z] | 0.6 | Non-toxic | – | 73 | – | –
